Experimental data published in patent publication US6596724B2, “Oxadiazole and thiadiazole derivatives of dihydropyridine NPY antagonists” (Bristol-Myers Squibb Company, priority 2000, dated 2003).

Key:
[1] = system: NPY-induced pressor response; conditions: pithed rat; cited from earlier work
[2] = system: NPY-induced increase in intracellular Ca++ in SK-N-MC cells; conditions: cited from earlier work
[3] = target: T1, I-125 Bolton-Hunter labeled NPY in human neuroblastoma cells (SK-N-MC) (Homo sapiens, UniProt P25929); conditions: cited from earlier work
T1 construct: displaces I-125 Bolton-Hunter labeled NPY in human neuroblastoma cells (SK-N-MC); host or cells: SK-N-MC human neuroblastoma cells (endogenous receptor)
T1 sequence (P25929 1-384): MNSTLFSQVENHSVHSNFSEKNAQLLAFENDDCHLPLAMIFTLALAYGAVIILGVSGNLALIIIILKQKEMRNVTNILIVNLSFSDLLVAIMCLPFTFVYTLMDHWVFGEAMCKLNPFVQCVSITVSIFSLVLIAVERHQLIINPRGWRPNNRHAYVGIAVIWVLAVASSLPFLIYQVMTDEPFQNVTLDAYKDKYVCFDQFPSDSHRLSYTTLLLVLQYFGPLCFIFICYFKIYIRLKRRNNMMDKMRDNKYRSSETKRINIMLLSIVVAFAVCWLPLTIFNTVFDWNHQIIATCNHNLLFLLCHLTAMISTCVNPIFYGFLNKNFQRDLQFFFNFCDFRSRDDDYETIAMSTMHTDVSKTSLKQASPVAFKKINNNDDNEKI

[4] = system: NPY-induced contractions in guinea pig basilar artery; conditions: cited from earlier work
[5] = target: T2, I-125 labeled NPY and PYY in human neuroblastoma cells (Homo sapiens, UniProt P25929); conditions: cited from earlier work
T2 construct: displacing I-125 labeled NPY and PYY in human neuroblastoma cells
T2 sequence (P25929 1-384): T1 sequence (P25929 1-384)

[6] = system: NPY-related increases in diastolic blood pressure; conditions: anesthetized guinea pig model; cited from earlier work

## NC(N)=NCCC[C@@H](NC(=O)C(c1ccccc1)c1ccccc1)C(=O)NCc1ccc(O)cc1 [BIBP 3226]
[1]
  antagonism of NPY-induced pressor response: antagonizing
[2]
  antagonism of NPY-induced increase in intracellular Ca++: antagonized
[3]
  displacement of I-125 Bolton-Hunter labeled NPY: displaces

## O=P(O)(O)OC1[C@H](OP(=O)(O)O)[C@H](O)C(O)[C@H](O)[C@H]1OP(=O)(O)O (stereo partly drawn) [D-Myo-inositol-1,2,6-triphosphate]
[4]
  antagonism of NPY-induced contractions: potent but non-competitive antagonist

## COC(=O)C1=C(C)NC(C)=C(C(=O)OC)C1c1cccc(NC(=O)NNC(=O)CN2CCC(c3ccccc3)CC2)c1 [Example 18, 4-[3-[[[2-[(4-Phenyl-1-piperidinyl)acetyl]-hydrazino]-carbonyl]amino]phenyl]1,4-dihydro-2,6-dimethyl-3,5-pyridinedicarboxylic acid, dimethyl ester]
other
  melting point: 138 to 143 °C

## COC(=O)C1=C(C)NC(C)=C(C(=O)OC)C1c1cccc(NC(=S)NNC(=O)CN2CCC(c3ccccc3)CC2)c1 [Example 19, 4-[3-[[[2-[(4-Phenyl-1-piperidinyl)acetyl]-hydrazino]-carbonothioyl]amino]phenyl]1,4-dihydro-2,6-dimethyl-3,5-pyridinedicarboxylic acid, dimethyl ester]
other
  melting point: 125 to 130 °C

## COC(=O)C1=C(C)NC(C)=C(C(=O)OC)C1c1cccc(NC(=S)NNC(=O)CN2CCC(c3cccc(OC)c3)CC2)c1 [Example 20, 4-[3-[[[2-[[4-(3-Methoxyphenyl)-1-piperidinyl)acetyl]-hydrazino]-carbonothioyl]amino]phenyl]1,4-dihydro-2,6-dimethyl-3,5-pyridinedicarboxylic acid, dimethyl ester]
other
  melting point: 113 to 116 °C

## COC(=O)C1=C(C)NC(C)=C(C(=O)OC)C1c1ccc(F)c(NC(=S)NNC(=O)CN2CCC(c3cccc(OC)c3)CC2)c1 [Example 22, 4-[4-Fluoro-3-[[[2-[[4-(3-methoxyphenyl)-1-piperidinyl]acetyl]-hydrazino]-carbonothioyl]amino]phenyl]1,4-dihydro-2,6-dimethyl-3,5-pyridinedicarboxylic acid, dimethyl ester]
other
  melting point: 114 to 120 °C

## CN(C)CC1CCC(CN=C(N)c2ccc(C[C@@H](NC(=O)[C@@H](Cc3ccccc3)NS(=O)(=O)c3ccc4ccccc4c3)C(=O)N3CCCC3)cc2)CC1 (stereo partly shown) [SR 120819A]
[5]
  displacement of I-125 labeled NPY and PYY: displacing
[6]
  antagonism of NPY-related increases in diastolic blood pressure: antagonized
